According to patent US3974140A, “Ureidoacetamido-penicillins” (Bayer Aktiengesellschaft, priority 1970, dated 1976):

What was measured:
[1] = system: E. coli A 261; assay: MIC, liquid medium test tube series dilution test; type: cell-based; details: E. coli A 261, 24 hours, 37°C
Summary of the method: (§1)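 In this in vitro test, growth inhibition is judged by absence of turbidity across a dilution series in complete nutrient broth. Readings are made after 24 hours at 37°C, with values given in units/ml.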

[2] = system: E. coli 183/58; assay: MIC, liquid medium test tube series dilution test; type: cell-based; details: E. coli 183/58, 24 hours, 37°C
Summary of the method: as §1

[3] = system: E. coli 14; assay: MIC, liquid medium test tube series dilution test; type: cell-based; details: E. coli 14, 24 hours, 37°C
Summary of the method: as §1

[4] = system: Klebsiella K 10; assay: MIC, liquid medium test tube series dilution test; type: cell-based; details: Klebsiella K 10, 24 hours, 37°C
Summary of the method: as §1

[5] = system: Klebsiella 63; assay: MIC, liquid medium test tube series dilution test; type: cell-based; details: Klebsiella 63, 24 hours, 37°C
Summary of the method: as §1

[6] = system: E. coli C 165; assay: MIC, liquid medium test tube series dilution test; type: cell-based; details: E. coli C 165, 24 hours, 37°C
Summary of the method: as §1

[7] = system: Klebsiella; details: background statement; cited from earlier work
[8] = system: Staph. aureus 1777 E; assay: MIC, liquid medium test tube series dilution test; type: cell-based, Staphylococcus aureus; details: 24 hours, 37°C
Summary of the method: as §1

[9] = system: Staph. aureus 133; assay: MIC, liquid medium test tube series dilution test; type: cell-based, Staphylococcus aureus; details: Staph. aureus 133, 24 hours, 37°C
Summary of the method: as §1

[10] = system: Staph. aureus 133; assay: Surviving mice after intraperitoneal infection and subcutaneous therapy; type: in vivo, white mice, CF1 strain; details: 2 × 200 units/mouse s.c.
Procedure: (§2) The experiments on animals (see Table 3) were carried out with white mice of the CF1 strain. The infection took place intraperitoneally with the particular bacterium indicated.

[11] = system: Proteus vulg. 1017; assay: MIC, liquid medium test tube series dilution test; type: cell-based, Proteus vulgaris; details: Proteus vulg. 1017, 24 hours, 37°C
Summary of the method: as §1

[12] = system: Proteus vulg. 3400; assay: MIC, liquid medium test tube series dilution test; type: cell-based, Proteus vulgaris; details: Proteus vulg. 3400, 24 hours, 37°C
Summary of the method: as §1

[13] = system: Psdm. aerug. Bonn; assay: MIC, liquid medium test tube series dilution test; type: cell-based, Pseudomonas aerug.; details: 24 hours, 37°C
Summary of the method: as §1

[14] = system: Psdm. aerug. Walter; assay: MIC, liquid medium test tube series dilution test; type: cell-based, Pseudomonas aerug.; details: 24 hours, 37°C
Summary of the method: as §1

[15] = Acute toxicity (LD50), intravenous injection into the vein of the tail; type: in vivo; details: mouse, in vivo, iv
From the text: Acute toxicity (LD50) in white mice after
intravenous injection into the vein of the […]

[16] = system: Pseudomon. aer. F 41; assay: Surviving mice after intraperitoneal infection and subcutaneous therapy; type: in vivo, white mice, CF1 strain; details: 30 min before and 2, 4, 6 hours after infection, 1st day
Procedure: as §2

[17] = system: Streptoc. faec. ATCC 9790; assay: MIC, liquid medium test tube series dilution test; type: cell-based; details: Strep. faec. (Enterococcus) ATCC 9790, 24 hours, 37°C
Summary of the method: as §1

[18] = Serum level after subcutaneous administration, measured from microbiological activity against Proteus vulgaris 1017; type: in vivo, white mice; details: 150.000 units s.c.
From the text: Serum level after subcutaneous ("s.c.") administration to white mice, in units/ml of serum, measured from the microbiological activity against Proteus vulgaris 1017 (ampicillin-resistant).

[19] = Acid stability; type: physicochemical; details: pH 1 where stated
[20] = system: Gram-negative and Gram-positive bacteria; assay: Antibacterial effect, general statements; details: MIC comparison
[21] = system: Proteus vulgaris 1017; assay: Reduction in number of bacteria/ml of blood after subcutaneous administration; type: in vivo, mouse
From the text: Reduction in number of bacteria/ml of blood after subcutaneous
administration of Penicillin No. 83.
Infection took place intraperitoneally with Proteus vulgaris 1017, 8
× 10^5 /mouse; ampicillin-resistant.

SMILES	MIC [1] [units/ml]	MIC [2] [units/ml]	MIC [3]	MIC [4]	MIC [5]	MIC [6] [units/ml]	Effectiveness against Klebsiella infections [7]	MIC [8] [units/ml]	MIC [9] [units/ml]	Number of surviving mice ([10]; 1 day) [%]	Number of surviving mice ([10]; 2 days) [%]	Number of surviving mice ([10]; 3 days) [%]	Number of surviving mice ([10]; 5 days) [%]	MIC [11] [units/ml]	MIC [12] [units/ml]	MIC [13] [units/ml]	MIC [14] [units/ml]	LD50 [15] [mg/kg]	MIC [17] [units/ml]	Stability to acid [19]	also measured
CC1(C)S[C@@H]2[C@H](NC(=O)[C@H](N)c3ccccc3)C(=O)N2[C@H]1C(=O)O [Ampicillin, D(-)-α-Aminobenzylpenicillin, reference compound]	> 400	200	~ 0.8 units/ml	100-200 units/ml	100-200 units/ml	6.25	not capable of effectively combating Klebsiella infections	200	< 1.0	100	100	100	100	400	> 400	200	200	–	–	–	–
CC1(C)S[C@@H]2[C@H](NC(=O)C(C(=O)O)c3ccccc3)C(=O)N2[C@H]1C(=O)O (stereo partly shown) [Carbenicillin]	–	–	–	–	–	–	only effective in man in the case of infections by Klebsiella bacteria if it is administered in continuing high doses	–	–	–	–	–	–	–	–	–	–	2700	–	–	Number of surviving mice ([16]; Dose E = 50,000 units/kg): 0%; Number of surviving mice ([16]; Dose F = 75,000 units/kg): 20%; Number of surviving mice ([16]; Dose G = 150,000 units/kg): 70%; Number of surviving mice ([16]; Dose H = 200,000 units/kg): 70%
CN(C(=O)N[C@@H](C(=O)N[C@@H]1C(=O)N2[C@@H]1SC(C)(C)[C@@H]2C(=O)O)c1ccccc1)C(=O)c1ccccc1 [Example 59, Sodium D(-)-α-(3-benzoyl-3-methyl-ureido)-benzylpenicillin]	> 400	3.12	1.56 units/ml	25 units/ml	50 units/ml	6.25	–	100	< 0.78	90	70	70	70	6.25	12.5	12.5	25	–	100	remain microbiologically active at pH 1 for over one hour	Serum level ([18]; 15 mins.): 25 units/ml of serum; Serum level ([18]; 30 mins.): 20 units/ml of serum; Serum level ([18]; 60 mins.): < 2 units/ml of serum
CC(=O)N(C)C(=O)N[C@@H](C(=O)N[C@@H]1C(=O)N2[C@@H]1SC(C)(C)[C@@H]2C(=O)O)c1ccccc1 [Example 66A, Sodium D(-)-α-(3-acetyl-3-methyl-ureido)-benzylpenicillin]	> 400	50	3.12 units/ml	50 units/ml	50 units/ml	12.5	–	50	< 0.78	100	90	70	70	50	100	6.25	12.5	> 4000	25	remain microbiologically active at pH 1 for over one hour	–
C=CCOC(=O)N(C)C(=O)N[C@@H](C(=O)N[C@@H]1C(=O)N2[C@@H]1SC(C)(C)[C@@H]2C(=O)O)c1ccccc1 [Example 68, Sodium D(-)-α-(3-allyloxycarbonyl-3-methyl-ureido)-benzylpenicillin]	> 400	6.25	3.12 units/ml	50 units/ml	25 units/ml	12.5	–	50	< 0.78	–	–	–	–	12.5	25	12.5	12.5	–	50	–	MIC ([17]; listed as (B) of Example 30): 50 units/ml; MIC ([2]; listed as (B) of Example 30): 6.25 units/ml; MIC ([3]; listed as (B) of Example 30): 3.12 units/ml; MIC ([4]; listed as (B) of Example 30): 50 units/ml; MIC ([5]; listed as (B) of Example 30): 25 units/ml; MIC ([6]; listed as (B) of Example 30): 12.5 units/ml; MIC ([9]; listed as (B) of Example 30): 0.78 units/ml; MIC ([11]; listed as (B) of Example 30): 12.5 units/ml; MIC ([12]; listed as (B) of Example 30): 25 units/ml; MIC ([13]; listed as (B) of Example 30): 12.5 units/ml; MIC ([14]; listed as (B) of Example 30): 12.5 units/ml; Biological activity compared between penicillin (A) and penicillin (B) [20]: identical within the limit of error
COc1ccc(C(=O)N(C)C(=O)N[C@@H](C(=O)N[C@@H]2C(=O)N3[C@@H]2SC(C)(C)[C@@H]3C(=O)O)c2ccccc2)cc1[N+](=O)[O-] [Example 83, Sodium D(-)-α-(3-[4-methoxy-3-nitrobenzoyl]-3-methyl-ureido)-benzylpenicillin]	400	6.25	3.12 units/ml	25 units/ml	50 units/ml	6.25	–	–	< 0.78	80	70	70	70	25	6.25	50	100	> 1200	100	remain microbiologically active at pH 1 for over one hour	Number of bacteria/ml of blood ([21]; 1 × 50,000 units/kg s.c. 30 min after infection, 30 mins.): 9 × 10^3 bacteria/ml of blood; Number of bacteria/ml of blood ([21]; 1 × 50,000 units/kg s.c., 60 mins.): 7 × 10^3 bacteria/ml of blood; Number of bacteria/ml of blood ([21]; 1 × 50,000 units/kg s.c., 90 mins.): 2 × 10^3 bacteria/ml of blood; Number of bacteria/ml of blood ([21]; 1 × 50,000 units/kg s.c., 120 mins.): 1 × 10^3 bacteria/ml of blood; Number of bacteria/ml of blood ([21]; 1 × 50,000 units/kg s.c., 150 mins.): 3 × 10^3 bacteria/ml of blood; Number of bacteria/ml of blood ([21]; 1 × 50,000 units/kg s.c., 180 mins.): 8 × 10^3 bacteria/ml of blood; Number of bacteria/ml of blood ([21]; 50,000 units/kg s.c. after 30 and 90 min, 60 mins.): 8 × 10^3 bacteria/ml of blood; Number of bacteria/ml of blood ([21]; 50,000 units/kg s.c. after 30 and 90 min, 90 mins.): ~5 × 10^3 bacteria/ml of blood; Number of bacteria/ml of blood ([21]; 50,000 units/kg s.c. after 30 and 90 min, 120 mins.): 2 × 10^2 bacteria/ml of blood; Number of bacteria/ml of blood ([21]; 50,000 units/kg s.c. after 30 and 90 min, 150 mins.): < 10^1 bacteria/ml of blood; Number of bacteria/ml of blood ([21]; 50,000 units/kg s.c. after 30 and 90 min, 180 mins.): < 10^1 bacteria/ml of blood; Number of bacteria/ml of blood ([21]; 50,000 units/kg s.c. after 30 min and further 50,000 units/kg after 90 min, 30 mins.): 2 × 10^4 bacteria/ml of blood
